Measured values as given in article PMC12142043, “Cell-based high-content approach for SARS-CoV-2 neutralization identifies unique monoclonal antibodies and PI3K pathway inhibitors” (Frontiers in Cell and Developmental Biology, 2025).

Test system: SARS-CoV-2 (USA-WA1/2020) in Calu-3 cells
Format: cell-based
Details: Calu-3, 48 h; for dsRNA signal, AU High: high dose (10 µM); for dsRNA signal, AU Low: low dose (100 nM)

| SMILES | dsRNA signal, AU High [AU] | dsRNA signal, AU Low [AU] |
| --- | --- | --- |
| COc1ccc(S(=O)(=O)Nc2ccccc2CN(C)C/C=C/c2ccc(Cl)cc2)cc1.O=P(O)(O)O [KN-92 phosphate] | 4429.3 | 16946.8 |
| COc1ccc(S(=O)(=O)N(CCO)c2ccccc2CN(C)C/C=C/c2ccc(Cl)cc2)cc1.O=P(O)(O)O [KN-93 Phosphate] | 4943.4 | 2840.4 |
| Nc1ccc(/C=C/C(=O)NCc2cc3cc(-c4ccc(C(=O)N5CCC(F)(F)CC5)cc4)cc(-c4ccc(F)cc4)c3o2)cn1 [KPT-9274] | 6803.0 | 25813.6 |
| CCCNC(=O)Nc1ccc(Oc2ncnc3cc(OC)c(OC)cc23)cc1Cl [KRN 633] | 55097.1 | 35164.2 |
| O=c1cc(-c2cccc3c2Sc2ccccc2S3)oc(N2CCOCC2)c1 [KU 55933] | 33867.0 | 52307.6 |
| C[C@@H]1CN(CC(=O)Nc2ccc3c(c2)Cc2cccc(-c4cc(=O)cc(N5CCOCC5)o4)c2S3)C[C@H](C)O1 [KU-60019] | 31471.9 | 10671.9 |
| COc1cc2nccc(Oc3ccc(NC(=O)Nc4ccc(F)cc4F)c(F)c3)c2cc1OC [Ki8751] | 16810.1 | 45822.4 |
| COc1cc(Oc2ccnc3cc(OC)c(OC)cc23)ccc1NC(=O)NC(C)c1nccs1 (stereo not drawn) [Ki20227] | 0.0 | 13064.0 |
| CC(C)C[C@H](N)C(=O)O [L-Leucine] | 3716.4 | 18120.1 |
| COc1ccccc1-c1cc(Nc2cccc(CS(N)(=O)=O)c2)ncn1 [LDC000067] | 31035.0 | 20712.1 |
| Cl.c1ccc2c(-c3cnn4cc(-c5ccc(N6CCNCC6)cc5)cnc34)ccnc2c1 [LDN193189 Hydrochloride] | 42525.8 | 24650.0 |
| c1ccc2c(-c3cnn4cc(-c5ccc(N6CCNCC6)cc5)cnc34)ccnc2c1 [LDN-193189] | 30043.0 | 7399.9 |
| COc1cc(-c2cc(-c3ccc(N4CCNCC4)cc3)cnc2C)cc(OC)c1OC [LDN-214117] | 4693.4 | 28899.6 |
| C/C(O)=C(\C#N)C(=O)Nc1cc(Br)ccc1Br [LFM-A13] | 60025.3 | 42758.8 |
| c1ccc(-c2[nH]ncc2-c2ccnc3ccccc23)nc1 [LY364947] | 12638.5 | 3456.2 |
| O=C1NC(=O)C(c2cnc3ccccn23)=C1c1cn2c3c(cc(F)cc13)CN(C(=O)N1CCCCC1)CC2 [LY2090314] | 16169.3 | 7523.7 |
| c1ccc(-c2nn3c(c2-c2ccnc4cc(OCCN5CCOCC5)ccc24)CCC3)nc1 [LY2109761] | 9694.6 | 5823.5 |
| Cc1cccc(-c2nn3c(c2-c2ccnc4ccc(C(N)=O)cc24)CCC3)n1 [LY2157299] | 33079.0 | 15107.1 |
| CC(C)(C)Cn1c(N)nc2ccc(-c3[nH]c(C(C)(C)C)nc3-c3ccc(F)cc3)nc21 [LY2228820] | 88.7 | 5927.3 |
| Cn1cc(-c2ccc(F)c(C(F)(F)F)c2)nc1C1CCN(c2ncnc3[nH]ncc23)CC1 [LY2584702] | 5638.3 | 15579.4 |
| Cc1cnc(NC(=O)Nc2cc(Br)c(C)cc2OC[C@@H]2CNCCO2)cn1 [LY2603618] | 13995.2 | 6197.3 |
| CCN1CCN(Cc2ccc(Nc3ncc(F)c(-c4cc(F)c5nc(C)n(C(C)C)c5c4)n3)nc2)CC1 [LY2835219 free base] | 59180.8 | 26611.9 |
| C[C@@H](Oc1ccc2[nH]nc(/C=C/c3cnn(CCO)c3)c2c1)c1c(Cl)cncc1Cl [LY2874455] | 11432.5 | 3320.6 |
| Cn1nccc1Nc1nccc(-c2cc3c(s2)C(C)(C)N(CCN2CCOCC2)C3=O)n1 [LY3214996] | 4594.5 | 22927.9 |
| O=c1cc(N2CCOCC2)oc2c(-c3ccccc3)cccc12 [LY 294002] | 11164.3 | 43579.3 |
| COc1cc2nccc(Oc3ccc(NC(=O)NC4CC4)c(Cl)c3)c2cc1C(N)=O [Lenvatinib (E7080)] | 26964.0 | 55504.0 |
| CCN(CC)CC(=O)Nc1c(C)cccc1C [Lidocaine] | 26152.6 | 999.3 |
